Source: US20240115597A1, “METHOD FOR TREATING AND/OR PREVENTING HEARING LOSS BY USING TOLL-LIKE RECEPTOR 7 AND/OR 9 ANTAGONIST” (Kaohsiung Chang Gung Memorial Hospital, priority 2022, published 2024)
Entries after “also recorded” stand apart in the source; their conditions may differ.

Key:
NF-κB = NF-κB immunostaining of the cochlea after noise; format: in vivo, mice; details: lateral wall, middle-basal segment; 106-dB noise
Method: (§1) The animal models used in this example and the following examples are as follows. Male CBA/CaJ mice at 4-6 weeks of age were purchased from National Laboratory Animal Center in Taiwan. The mice accessed to water and a regular mouse diet, and were kept at 22±1° C. under a standard 12h:12h light-dark cycle to acclimate for one week before the experiments. The lights were on from 5:00 to 17:00).
(§2) The experimental procedure of noise exposure is as follows. Three awake CBA/CaJ mice in the same group were placed in a sound chamber, with one mouse per stainless steel cage. The sound chamber was fitted with a loudspeaker, driven by an amplifier connected to a CD player. Broadband noise (BBN) with a frequency of 2 to 20 kHz was compiled onto a CD and equalized with software. Sound levels were calibrated with a sound level meter (type 2250; Brtiel & Kja✓r) fitted with a microphone (type 4189; Brtiel & Kja✓r, Na✓rum, Denmark) at the locations of each cage within the sound chamber, before and after exposure to the noise. The control (sham) group was put in the same cage without exposure to noise for 2 hours. An intensity of 106 dB broadband noise was used to produce permanent threshold shifts.
(§3) Chloroquine was dissolved in saline. ODN 2088 was dissolved in endotoxin-free water. The control group was endotoxin-free water. […]

CBA/CaJ mice [1] = test: Noise-induced auditory brainstem response (ABR) threshold shift; format: in vivo; details: 3 weeks after 106-dB noise exposure, chloroquine 50 mg/kg intraperitoneal, ODN 2088 5 mg/kg subcutaneous, four treatments
Method: as §1
(§4) The experimental procedure of noise exposure is as follows. Three awake CBA/CaJ mice in the same group were placed in a sound chamber, with one mouse per stainless steel cage. The sound chamber was fitted with a loudspeaker, driven by an amplifier connected to a CD player. Broadband noise (BBN) with a frequency of 2 to 20 kHz was compiled onto a CD and equalized with software. […]
(§5) The experimental procedure of auditory brainstem response (ABR) is as follows. […] Body temperature was monitored and maintained near 37° C. with a heating pad. […] ABRs were measured at 8, 16, and 32 kHz. […] Thresholds were determined for each frequency by reducing the intensity in 10 dB increments and then in 5 dB steps near the threshold until no organized responses were detected. […] ABR thresholds were detected at before noise exposure and one week/three week after noise exposure. […]

CBA/CaJ mice [2] = test: Noise-induced reduction of ABR wave I amplitude; format: in vivo; details: 16 kHz; 106-dB noise; chloroquine 50 mg/kg intraperitoneal, ODN 2088 5 mg/kg subcutaneous
Method: as §1
The experimental procedure of noise exposure is as follows. Three awake CBA/CaJ mice in the same group were placed in a sound chamber, with one mouse per stainless steel cage. The sound chamber was fitted with a loudspeaker, driven by an amplifier connected to a CD player. […]
as §5
To test if TLR7/9 antagonists could protect the auditory nerve against acoustic trauma, we measured the ABR wave I amplitudes at 16 kHz, which is one of the most sensitive frequencies of the auditory spectrum in the mice.

Iba-1±cells = test: Iba-1± cell (macrophage) infiltration into the cochlea after noise; format: in vivo, mice
Method: as §1, §2, §3

outer hair cell (OHC) = test: Outer hair cell (OHC) counts in cochlear surface preparations after 106-dB noise; format: in vivo, mice; details: basal segment, chloroquine 50 mg/kg intraperitoneal
Method: as §1, §4
To examine if TLR7/9 antagonist could protect the OHC from acoustic trauma, we counted the OHCs in surface preparations after 106-dB noise exposure. […]
The experimental procedure of immunocytochemistry for outer hair cell (OHC) counts is as follows. […] Cell populations in the phalloidin-stained stereociliary bundles and circumferential F-actin rings around the cuticular plate of the OHCs were evaluated using an epifluorescence microscope. […] Each successive 0.25 mm field was evaluated beginning from the apex to the base for counting the number of OHCs. […]

[3] = system: cochlear cytokines and chemokines; test: Quantitative real-time RT-PCR of cochlear cytokine and chemokine gene expression after noise; format: in vivo, mice; details: one day after systemic (intraperitoneal) chloroquine treatment; noise exposure; normalized to Actb
Method: as §1, §4
To test if TLR7/9 antagonist could affect the expression of cochlear cytokines and chemokines after noise, we used quantitative real-time reverse transcription polymerase chain reaction (quantitative real-time RT-PCR) to analyze gene expression in the cochlea one day after systemic chloroquine treatment.
The experimental procedure of RNA isolation and quantitative real-time RT-PCR is as follows. […] Real-time quantitative PCR was performed in an ABI 7500 Fast Real-Time System (Applied Biosystems). […]

CCN(CC)CCCC(C)Nc1ccnc2cc(Cl)ccc12 (stereo not drawn) [chloroquine]
immunostaining of NF-κB in the cochlea (NF-κB): attenuates noise-induced nuclear factor kappa-B (NF-κB) immunostaining of the cochlea; also recorded: decreased the immunostaining of NF-κB | noise-induced ABR threshold shift (CBA/CaJ mice [1]): attenuate 106-dB noise-induced auditory threshold shifts | noise-induced ABR threshold shift (CBA/CaJ mice [1]; listed as Chloroquine): decreased the noise-induced ABR thresholds shift | noise-induced decrease in ABR wave I amplitude (CBA/CaJ mice [2]): attenuate 106-dB noise-induced wave I amplitude reduction at 16 kHz; also recorded: attenuated the noise-induced decrease in the amplitudes | number of Iba-1±signals, quantification of immunofluorescence (Iba-1±cells; each segment of the cochlea): reduces the number of Iba-1macrophage infiltration in the cochlea; also recorded: decreases the number of Iba-1signals in each segment of the cochlea | Iba-1±cell infiltration, immunohistochemistry (Iba-1±cells; lower spiral ligament of the cochlea): attenuates noise-induced infiltration of Iba-1macrophages; also recorded: attenuates the increase in Iba-1cell infiltration | percentage of OHC loss (outer hair cell (OHC)): decreases noise-induced outer hair cell (OHC) loss; also recorded: attenuated the percentage of OHC loss over this area | mRNA expression of Tlr9, MyD88, Il-1β, Tnf-α and Irf-7 in the cochlea [3]: decreases noise-induced elevation of cochlear cytokines and chemokines expression; also recorded: attenuated these changes | noise-induced elevation of Ccl2, Ccl4 and Ccl12 expression in the cochlea [3]: decreases noise-induced elevation of cochlear cytokines and chemokines expression; also recorded: decreased the noise-induced elevation
